Data reported in article PMC12363211, “Rationally designed self-assembled peptide nanofibers provoke robust humoral immunity against nervous necrosis virus” (Journal of Virology, 2025).
Marks after values point to notes of the source that are not given here.

Legend:
[1] = Nanofiber self-assembly and morphology (TEM); format: physicochemical; conditions: in the salts (pH = 7)
Experimental: CP^64-83-Q11 nanofiber synthesis and characteristics
Q11, CP^64-83, and CP^64-83-Q11 peptides were synthesized and purified by Genecreate Co. (Wuhan). […] The morphology of the CP^64-83-Q11 was determined by transmission electron microscopy (TEM) using a Hitachi Model H-7700 microscope (Hitachi, Japan). The particle size of reassembled CP^64-83-Q11 was determined using a Zetasizer (nano ZS90, Malvern Panalytical, UK). The secondary structure of CP^64-83-Q11 nanovaccine was analyzed by circular dichroism (CD) spectra (Chirascan V100, Applied Photophysics, UK).

grouper = experiment: In vivo safety: survival, weight and pathology of vaccinated grouper; conditions: i.p. 2 mM, 28-day period
Experimental: NNV-free pearl gentian grouper (Epinephelus lanceolatus × Epinephelus fuscoguttatus) juveniles (5.12 ± 0.63 g) were purchased from a commercial fish farm (Wenchang, Hainan, China). Real-time quantitative polymerase chain reaction (qPCR) was used to detect NNV in purchased fish. Primers of NNVdetection F: […] and NNVdetection R: […] were used for NNV detection. Grouper were reared in a recirculating water system with filtered seawater at 28.0 ± 1.0°C. Each tank contains 50 L seawater with continuous aeration. Fish were fed twice daily and acclimated for 15 days before experiments.
Safety evaluation of the CP^64-83-Q11 nanofiber
The safety evaluation of the synthesized nanofiber was assessed using in vitro and in vivo models. For the in vitro cytotoxicity evaluation, the standard MTT assay was employed. GF-1 cells and grouper macrophages were seeded into 96-well plates at a density of 5 × 10⁵ cells per well. These cells were then exposed to varying concentrations (1, 5, 10, 20, and 40 µg/mL) of Q11, CP^64-83, CP, or CP^64-83-Q11 for 24 h. […] Absorbance was then measured at 490 nm using a microplate reader. Cell viability was calculated as follows: Cell viability = (ODtreatment group − ODblank)/(ODcontrol group − ODblank) × 100%. […] Additionally, the initial and final weights of the fish were monitored throughout the 28-day period.

## QQKFQFQFEQQ [Q11, Q11 peptide (…), a minimalist self-assembling motif]
[1]
  self-assembly into nanofibers: could self-assemble into nanofibers in the salts (pH = 7)
grouper; unchallenged vaccinated grouper, 78 fish per group, all groups incl. control share letter a
  Survival rate: 98.26 ± 3.37^a %
grouper; vaccinated grouper, initial weight 5.12 ± 0.63 g, all groups incl. control (8.96 ± 1.02) share letter a
  Final weight: 8.72 ± 0.56^a g
